Source: PubChem BioAssay AID328 (DTP/NCI, 2004)
Several values for one entry are separate records, joined by “and”; a condition that tells them apart may be missing. Identical values can stand only once. Inconclusive results and toxic doses are left out.

Test system: BDF1 mice, P388 leukemia ip, median survival T/C
Experiment: NCI In Vivo Anticancer Drug Screen. Data for tumor model P388 Leukemia (intraperitoneal) in B6D2F1 (BDF1) mice
Conditions: endpoint: median survival time, higher = longer survival
Method in brief: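 Steps: implant the tumour, treat one group with compound and another with vehicle, record survival, then divide treated by control.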

[1] = dose: 50.0 mg/kg/injection, schedule: Q01DX009 (ip), vehicle: saline with Tween-80
[2] = dose: 100.0 mg/kg/injection, schedule: Q01DX009 (ip), vehicle: saline with Tween-80
[3] = dose: 100.0 mg/kg/injection, schedule: Q04DX003 (ip), vehicle: saline with Tween-80
[4] = dose: 200.0 mg/kg/injection, schedule: Q04DX003 (ip), vehicle: saline with Tween-80
[5] = dose: 400.0 mg/kg/injection, schedule: Q04DX003 (ip), vehicle: saline with Tween-80
[6] = dose: 1.0 mg/kg/injection, schedule: Q01DX009 (ip), vehicle: saline

Structure (SMILES): CC(C)(C)c1cc(I)c(O)c(CN)c1
- T/C (dose: 12.5 mg/kg/injection, schedule: Q01DX009 (ip), vehicle: saline with Tween-80): 105 % of control
- T/C (dose: 12.5 mg/kg/injection, schedule: Q01DX009 (ip), vehicle: saline): 95 % of control
- T/C (dose: 25.0 mg/kg/injection, schedule: Q01DX009 (ip), vehicle: saline with Tween-80): 109 % of control
- T/C (dose: 25.0 mg/kg/injection, schedule: Q01DX009 (ip), vehicle: saline): 104 % of control
- T/C [1]: 114 % of control
- T/C (dose: 50.0 mg/kg/injection, schedule: Q01DX009 (ip), vehicle: saline): 104 % of control
- T/C [2]: 114 % of control

Structure (SMILES): O=C1c2ccccc2S(=O)(=O)N1CC(O)COc1ccc(Cl)cc1 (stereo not drawn)
- T/C [3]: 104 % of control
- T/C [4]: 100 % of control
- T/C [5]: 95 % of control

Structure (SMILES): CCCCCCCC(=O)Oc1c(Cl)c(Cl)c(C#N)c(Cl)c1C#N
- T/C [1]: 119 % of control

Structure (SMILES): O=C/C(Cl)=C(/Cl)C(=O)O
- T/C (dose: 6.25 mg/kg/injection, schedule: Q04DX002 (ip), vehicle: saline with Tween-80): 110 % of control
- T/C (dose: 12.5 mg/kg/injection, schedule: Q04DX002 (ip), vehicle: saline with Tween-80): 108 % of control
- T/C (dose: 25.0 mg/kg/injection, schedule: Q04DX002 (ip), vehicle: saline with Tween-80): 103 % of control

Structure (SMILES): COC(=O)C1CCCC23CC(CC12)C(C)(C)C3Br (stereo not drawn)
- T/C (dose: 100.0 mg/kg/injection, schedule: Q04DX003 (ip), vehicle: Klucel (hydroxypropylcellulose) (HPC)): 95 % of control
- T/C (dose: 200.0 mg/kg/injection, schedule: Q04DX003 (ip), vehicle: Klucel (hydroxypropylcellulose) (HPC)): 100 % of control
- T/C (dose: 400.0 mg/kg/injection, schedule: Q04DX003 (ip), vehicle: Klucel (hydroxypropylcellulose) (HPC)): 90 % of control

Structure (SMILES): Oc1cc(N2CC2)c(O)cc1N1CC1
- T/C (dose: 0.02 mg/kg/injection, schedule: Q01DX009 (ip), vehicle: saline): 150 % of control
- T/C (dose: 0.03 mg/kg/injection, schedule: Q01DX009 (ip), vehicle: saline): 154 % of control
- T/C (dose: 0.1 mg/kg/injection, schedule: Q01DX009 (ip), vehicle: saline): 171 % of control
- T/C (dose: 0.13 mg/kg/injection, schedule: Q01DX009 (ip), vehicle: saline): 200 % of control and 213 % of control
- T/C (dose: 0.2 mg/kg/injection, schedule: Q01DX009 (ip), vehicle: saline): 186 % of control and 204 % of control
- T/C (dose: 0.3 mg/kg/injection, schedule: Q01DX009 (ip), vehicle: saline): 204 % of control
- T/C (dose: 0.44 mg/kg/injection, schedule: Q01DX009 (ip), vehicle: saline): 200 % of control
- T/C (dose: 0.47 mg/kg/injection, schedule: Q04DX003 (ip), vehicle: saline): 150 % of control
- T/C (dose: 0.68 mg/kg/injection, schedule: Q01DX009 (ip), vehicle: saline): 263 % of control
- T/C (dose: 0.72 mg/kg/injection, schedule: Q04DX003 (ip), vehicle: saline): 200 % of control
- T/C [6]: 268 % of control
- T/C (dose: 1.08 mg/kg/injection, schedule: Q04DX003 (ip), vehicle: saline): 220 % of control
- T/C (dose: 1.65 mg/kg/injection, schedule: Q04DX003 (ip), vehicle: saline): 225 % of control
- T/C (dose: 2.5 mg/kg/injection, schedule: Q04DX003 (ip), vehicle: saline): 225 % of control and 150 % of control
- T/C (dose: 3.75 mg/kg/injection, schedule: Q04DX003 (ip), vehicle: saline): 90 % of control
- T/C (dose: 16.0 micrograms/kg/injection, schedule: Q01DX009 (ip), vehicle: saline): 105 % of control
- T/C (dose: 25.0 micrograms/kg/injection, schedule: Q01DX009 (ip), vehicle: saline): 102 % of control
- T/C (dose: 38.0 micrograms/kg/injection, schedule: Q01DX009 (ip), vehicle: Klucel (hydroxypropylcellulose) (HPC)): 190 % of control
- T/C (dose: 58.0 micrograms/kg/injection, schedule: Q01DX009 (ip), vehicle: Klucel (hydroxypropylcellulose) (HPC)): 200 % of control
- T/C (dose: 88.0 micrograms/kg/injection, schedule: Q01DX009 (ip), vehicle: saline): 179 % of control
- T/C (dose: 132.0 micrograms/kg/injection, schedule: Q01DX009 (ip), vehicle: saline): 120 % of control

Structure (SMILES): COC(=O)C(Cc1c[nH]c2ccccc12)NC(=O)C(Cc1c[nH]c2ccccc12)NC(=O)OC(C)(C)C (stereo not drawn)
- T/C (dose: 100.0 mg/kg/injection, schedule: Q01DX001 (ip), vehicle: saline with Tween-80): 90 % of control
- T/C (dose: 200.0 mg/kg/injection, schedule: Q01DX001 (ip), vehicle: saline with Tween-80): 86 % of control
- T/C (dose: 400.0 mg/kg/injection, schedule: Q01DX001 (ip), vehicle: saline with Tween-80): 90 % of control

Structure (SMILES): Cn1c(=O)c2ncnnc2n(C)c1=O
- T/C (dose: 1.5 mg/kg/injection, schedule: Q01DX009 (ip), vehicle: Klucel (hydroxypropylcellulose) (HPC)): 103 % of control
- T/C (dose: 3.0 mg/kg/injection, schedule: Q01DX009 (ip), vehicle: Klucel (hydroxypropylcellulose) (HPC)): 107 % of control
- T/C (dose: 6.0 mg/kg/injection, schedule: Q01DX009 (ip), vehicle: Klucel (hydroxypropylcellulose) (HPC)): 112 % of control
- T/C (dose: 6.25 mg/kg/injection, schedule: Q01DX009 (ip), vehicle: Klucel (hydroxypropylcellulose) (HPC)): 250 % of control
- T/C (dose: 12.0 mg/kg/injection, schedule: Q01DX009 (ip), vehicle: Klucel (hydroxypropylcellulose) (HPC)): 106 % of control
- T/C (dose: 12.5 mg/kg/injection, schedule: Q01DX009 (ip), vehicle: Klucel (hydroxypropylcellulose) (HPC)): 108 % of control

Structure (SMILES): OCC(Br)(Br)Br
- T/C (dose: 100.0 mg/kg/injection, schedule: Q01DX009 (ip), vehicle: other): 95 % of control
- T/C (dose: 200.0 mg/kg/injection, schedule: Q01DX009 (ip), vehicle: other): 95 % of control

Structure (SMILES): CC(=O)Nc1onc(C)c1[N+](=O)[O-]
- T/C (dose: 100.0 mg/kg/injection, schedule: Q01DX009 (ip), vehicle: saline): 100 % of control
- T/C (dose: 100.0 mg/kg/injection, schedule: Q04DX003 (ip), vehicle: saline): 104 % of control
- T/C (dose: 200.0 mg/kg/injection, schedule: Q01DX009 (ip), vehicle: saline): 100 % of control
- T/C (dose: 200.0 mg/kg/injection, schedule: Q04DX003 (ip), vehicle: saline): 109 % of control
- T/C (dose: 400.0 mg/kg/injection, schedule: Q01DX009 (ip), vehicle: saline): 104 % of control
- T/C (dose: 400.0 mg/kg/injection, schedule: Q04DX003 (ip), vehicle: saline): 109 % of control

Structure (SMILES): CCCCN(C)C(=S)S[Te](SC(=S)N(C)CCCC)(SC(=S)N(C)CCCC)SC(=S)N(C)CCCC
- T/C (dose: 45.0 mg/kg/injection, schedule: Q01DX010 (ip), vehicle: carboxymethylcellulose (CMC)): 100 % of control
- T/C (dose: 90.0 mg/kg/injection, schedule: Q01DX010 (ip), vehicle: carboxymethylcellulose (CMC)): 105 % of control
- T/C (dose: 180.0 mg/kg/injection, schedule: Q01DX010 (ip), vehicle: carboxymethylcellulose (CMC)): 115 % of control
- T/C (dose: 360.0 mg/kg/injection, schedule: Q01DX010 (ip), vehicle: carboxymethylcellulose (CMC)): 110 % of control

Structure (SMILES): c1ccc2c[n+](CCCCCCCCCC[n+]3ccc4ccccc4c3)ccc2c1
- T/C [6]: 104 % of control
- T/C (dose: 2.0 mg/kg/injection, schedule: Q01DX009 (ip), vehicle: saline): 113 % of control
- T/C (dose: 2.5 mg/kg/injection, schedule: Q01DX009 (ip), vehicle: saline): 110 % of control and 115 % of control
- T/C (dose: 2.6 mg/kg/injection, schedule: Q01DX009 (ip), vehicle: saline): 120 % of control
- T/C (dose: 4.0 mg/kg/injection, schedule: Q01DX009 (ip), vehicle: saline): 110 % of control
- T/C (dose: 5.0 mg/kg/injection, schedule: Q01DX009 (ip), vehicle: saline): 107 % of control
- T/C (dose: 10.0 mg/kg/injection, schedule: Q01DX009 (ip), vehicle: saline): 103 % of control and 112 % of control

Structure (SMILES): CC(C)=CCC/C(C)=C/CN1C(=O)C=CC1=O
- T/C (dose: 0.39 mg/kg/injection, schedule: Q01DX009 (ip), vehicle: water): 94 % of control
- T/C (dose: 0.78 mg/kg/injection, schedule: Q01DX009 (ip), vehicle: water): 100 % of control
- T/C (dose: 1.56 mg/kg/injection, schedule: Q01DX009 (ip), vehicle: water): 112 % of control
- T/C (dose: 3.12 mg/kg/injection, schedule: Q01DX009 (ip), vehicle: water): 112 % of control
- T/C (dose: 6.25 mg/kg/injection, schedule: Q01DX009 (ip), vehicle: water): 111 % of control
- T/C (dose: 12.5 mg/kg/injection, schedule: Q01DX009 (ip), vehicle: water): 89 % of control

Structure (SMILES): COc1ccc(/C=C/C(=O)c2ccccc2)cc1
- T/C [2]: 97 % of control
- T/C [3]: 104 % of control
- T/C (dose: 200.0 mg/kg/injection, schedule: Q01DX009 (ip), vehicle: saline with Tween-80): 98 % of control
- T/C [4]: 104 % of control
- T/C (dose: 400.0 mg/kg/injection, schedule: Q01DX009 (ip), vehicle: saline with Tween-80): 98 % of control
- T/C [5]: 104 % of control
